Reference: US5922683A, “Multicyclic erythromycin derivatives” (Abbott Laboratories, priority 1998, dated 1999)

Tests used:
Assay type in all cases: cell-based
Conditions in all cases: BHI agar, 35-37° C., 20 to 24 hours
[1] = tested on: STAPHYLOCOCCUS AUREUS 1775; assay: In vitro antibacterial activity (agar dilution MIC)
Protocol: (§1) Representative compounds of the present invention were assayed in vitro for antibacterial activity as follows: Twelve petri dishes containing successive aqueous dilutions of the test compound mixed with 10 mL of sterilized Brain Heart Infusion (BHI) agar (Difco 0418-01-5) were prepared. Each plate was inoculated with 1:100 (or 1:10 for slow-growing strains, such as Micrococcus and Streptococcus) dilutions of up to 32 different microorganisms, using a Steers replicator block. The inoculated plates were incubated at 35-37° C. for 20 to 24 hours. In addition, a control plate, using BHI agar containing no test compound, was prepared and incubated at the beginning and end of each test.
(§2) An additional plate containing a compound having known susceptibility patterns for the organisms being tested and belonging to the same antibiotic class as the test compound was also prepared and incubated as a further control, as well as to provide test-to-test comparability. Erythromycin A was used for this purpose.
(§3) After incubation, each plate was visually inspected. The minimum inhibitory concentration (MIC) was defined as the lowest concentration of drug yielding no growth, a slight haze, or sparsely isolated colonies on the inoculum spot as compared to the growth control.

STR[…] 930 = assay: as above
Protocol: as §1, §2, §3

ESCHERICHA COLI SS = assay: as above
Protocol: as §1, §2, §3

[2] = tested on: STAPHYLOCOCCUS AUREUS ATCC 6538P; assay: as above
Protocol: as §1, §2, §3

N. ASTEROIDES ATCC 9970 = assay: as above
Protocol: as §1, §2, §3

[3] = tested on: STAPHYLOCOCCUS AUREUS CMX 642A; assay: as above
Protocol: as §1, §2, §3

[4] = tested on: STAPHYLOCOCCUS EPIDERMIDIS 3519; assay: as above
Protocol: as §1, §2, §3

[5] = tested on: MYCOBACTERIUM SMEGMATIS ATCC 114; assay: as above
Protocol: as §1, §2, §3

[6] = tested on: STREPTOCOCCUS BOVIS A-5169; assay: as above
Protocol: as §1, §2, §3

[7] = tested on: STAPHYLOCOCCUS AUREUS A5177; assay: as above
Protocol: as §1, §2, §3

[8] = tested on: STREPTOCOCCUS PYOGENES EES61; assay: as above
Protocol: as §1, §2, §3

ESCHERICHIA COLI JUHL = assay: as above
Protocol: as §1, §2, §3

STR[…] PIU 2548 = assay: as above
Protocol: as §1, §2, §3

[9] = tested on: STAPHYLOCOCCUS AUREUS NCTC10649M; assay: as above
Protocol: as §1, §2, §3

ESCHERICHIA COLI DC-2 = assay: as above
Protocol: as §1, §2, §3

[10] = tested on: STAPHYLOCOCCUS AUREUS A-5278; assay: as above
Protocol: as §1, §2, §3

[11] = tested on: STAPHYLOCOCCUS AUREUS CMX 553; assay: as above
Protocol: as §1, §2, §3

CANDIDA ALBICANS CCH 442 = assay: In vitro antimicrobial activity (agar dilution MIC)
Protocol: as §1, §2, §3

Structure (SMILES) | minimum inhibitory concentration (MIC) [1] | minimum inhibitory concentration (MIC) (STR[…] 930) | minimum inhibitory concentration (MIC) (ESCHERICHA COLI SS) | minimum inhibitory concentration (MIC) [2] | minimum inhibitory concentration (MIC) (N. ASTEROIDES ATCC 9970) | minimum inhibitory concentration (MIC) [3] | minimum inhibitory concentration (MIC) [4] | minimum inhibitory concentration (MIC) [5] | minimum inhibitory concentration (MIC) [6] | minimum inhibitory concentration (MIC) [7] | minimum inhibitory concentration (MIC) [8] | minimum inhibitory concentration (MIC) (ESCHERICHIA COLI JUHL) | minimum inhibitory concentration (MIC) (STR[…] PIU 2548) | minimum inhibitory concentration (MIC) [9] | minimum inhibitory concentration (MIC) (ESCHERICHIA COLI DC-2) | minimum inhibitory concentration (MIC) [10] | minimum inhibitory concentration (MIC) [11] | minimum inhibitory concentration (MIC) (CANDIDA ALBICANS CCH 442)
CC[C@H]1OC(=O)[C@H](C)C(=O)[C@H](C)[C@@H](O[C@@H]2O[C@H](C)C[C@H](N(C)C)[C@H]2O)[C@](C)(OC)C[C@@H](C)C2=Nc3ccccc3N3C(=O)O[C@@]1(C)[C@H]3[C@H]2C [Ex 2] | > 100 | > 100 | 1.56 | 0.39 | 0.39 | 0.39 | 0.39 | 3.1 | 0.1 | 0.39 | 0.1 | > 100 | 0.39 | 0.39 | > 100 | > 100 | 0.39 | > 100
CC[C@H]1OC(=O)[C@H](C)C(=O)[C@H](C)[C@@H](O[C@@H]2O[C@H](C)C[C@H](N(C)C)[C@H]2O)[C@](C)(OC)C[C@@H](C)C2=Nc3cc(C)ccc3N3C(=O)O[C@@]1(C)[C@H]3[C@H]2C [Ex 4] |  | > 100 | 0.2 | 0.78 | 0.1 | 0.78 |  | 100 |  | 0.78 |  | > 100 | 0.2 | 0.78 | > 100 | > 100 |  | > 100
CC[C@H]1OC(=O)[C@H](C)C(=O)[C@H](C)[C@@H](O[C@@H]2O[C@H](C)C[C@H](N(C)C)[C@H]2O)[C@](C)(OC)C[C@@H](C)C2Nc3ccccc3N3C(=O)O[C@@]1(C)[C@H]3[C@H]2C (single isomer, unassigned) [Ex 3] | > 100 | > 100 | 100 | 25 |  |  |  |  | 1.56 | 25 | 3.1 | > 100 | 25 |  | > 100 | > 100 |  | > 100
CC[C@H]1OC(=O)[C@H](C)C(=O)[C@H](C)[C@@H](O[C@@H]2O[C@H](C)C[C@H](N(C)C)[C@H]2O)[C@](C)(OC)C[C@@H](C)C2=Nc3cccnc3N3C(=O)O[C@@]1(C)[C@H]3[C@H]2C [Ex 7] | > 100 | > 100 | 0.78 | 0.39 | 0.1 | 0.39 | 0.39 | 3.1 | 0.05 | 0.39 | 0.05 | > 100 | 0.39 | 0.39 | > 100 | > 100 | 0.39 | > 100
C=CCO[C@]1(C)C[C@@H](C)C2=Nc3ccccc3N3C(=O)O[C@](C)([C@@H](CC)OC(=O)[C@H](C)C(=O)[C@H](C)[C@H]1O[C@@H]1O[C@H](C)C[C@H](N(C)C)[C@H]1O)[C@H]3[C@H]2C [Ex 8] | > 100 | > 100 | 12.5 | 0.78 | 3.1 | 0.78 |  |  | 0.1 | 0.78 | 0.39 | > 100 | 0.78 | 0.78 | > 100 | > 100 | 0.78 | > 100
CC[C@H]1OC(=O)[C@H](C)C(=O)[C@H](C)[C@@H](O[C@@H]2O[C@H](C)C[C@H](N(C)C)[C@H]2O)[C@](C)(OC)C[C@@H](C)C2=Nc3cc(OC)ccc3N3C(=O)O[C@@]1(C)[C@H]3[C@H]2C [Ex 5] | > 100 | > 100 | 50 | 0.78 | 0.2 | 0.78 | 0.78 | 1.56 | 0.02 | 0.78 | 0.02 | > 100 | 0.39 | 0.78 | > 100 | > 100 | 0.78 | > 100
CC[C@H]1OC(=O)[C@H](C)C(=O)[C@H](C)[C@@H](O[C@@H]2O[C@H](C)C[C@H](N(C)C)[C@H]2O)[C@](C)(OC)C[C@@H](C)C2=Nc3cc(C#N)ccc3N3C(=O)O[C@@]1(C)[C@H]3[C@H]2C [Ex 6] | > 100 | > 100 | 3.1 | 0.39 | 0.39 | 0.39 | 0.2 | 0.1 |  |  |  | > 100 | 0.39 | 0.39 | > 100 | > 100 | 0.39 | > 100
